From PMC8216263 (Pharmaceutical Biology, 2021)

Legend:
OAT3 = target: T1, OAT3 (Homo sapiens, UniProt Q8TCC7); experiment: Inhibition of OAT3-mediated 3H-ES uptake in S2-OAT3 cells; format: cell-based; conditions: GA 50–5000 μg/L, PCA 10–1000 μg/L
T1 construct: host or cells: S2 (second portion of proximal tubule) cells
T1 sequence (Q8TCC7 1-542): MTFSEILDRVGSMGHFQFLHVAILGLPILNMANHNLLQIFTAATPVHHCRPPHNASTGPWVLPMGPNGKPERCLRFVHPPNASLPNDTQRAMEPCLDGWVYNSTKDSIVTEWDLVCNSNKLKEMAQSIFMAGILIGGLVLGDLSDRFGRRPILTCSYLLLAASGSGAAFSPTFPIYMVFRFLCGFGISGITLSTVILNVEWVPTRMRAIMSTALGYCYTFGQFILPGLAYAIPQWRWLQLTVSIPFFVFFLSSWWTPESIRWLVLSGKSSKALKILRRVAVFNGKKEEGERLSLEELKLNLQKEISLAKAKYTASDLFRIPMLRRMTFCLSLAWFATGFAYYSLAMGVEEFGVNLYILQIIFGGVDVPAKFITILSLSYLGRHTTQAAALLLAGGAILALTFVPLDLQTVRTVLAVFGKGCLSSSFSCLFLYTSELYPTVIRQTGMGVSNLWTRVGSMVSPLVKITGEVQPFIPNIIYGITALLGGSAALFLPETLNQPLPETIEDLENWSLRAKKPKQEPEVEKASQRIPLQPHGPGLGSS
Protocol: Cells were cultured in DMEM supplemented with 10% FBS, 100 units/mL penicillin and 100 units/mL streptomycin. […] Cell culture flasks, 24-well cell culture plates, and transwell polycarbonate inserts (12 mm diameter, 0.4 μm pore size) were purchased from Corning Co-star Corp. (Bedford, MA).
The MDCK-OAT1, S2-OAT3, S2-OCT2 and HEK293-OATP1B1 cell lines were utilized in this study. […] Briefly, S2-OAT3, S2-OCT2 and S2-mock cells were trypsinized and uniformly suspended in the culture medium’s designated volume to provide a density of 2.0 × 10^5 cells/mL. A 1.0-mL aliquot of the cell suspension was added into each well of 24-well insert plates. HEK293-OATP1B1, MDCK-OAT1 and their mock cells were seeded in 24-well plates at a density of 1.5 × 10^5 cells/well. […] Three washes terminated the experiment with ice-cold DPBS buffer after removing the incubation buffer. Cells were lysed with 400 μL of […] sodium hydroxide solution. The cell lysate and 3.0 mL of aquasol-2 scintillation fluid were put into a scintillation flask. […] The final concentration of DMSO in the assay was less than 0.1%. All experiments were performed in triplicate.

OATP1B1 = target: T2, OATP1B1 (Homo sapiens, UniProt Q9Y6L6); experiment: Inhibition of OATP1B1-mediated 3H-ES uptake in HEK293-OATP1B1 cells; format: cell-based; conditions: GA 50–5000 μg/L, PCA 10–1000 μg/L
T2 sequence (Q9Y6L6 1-691): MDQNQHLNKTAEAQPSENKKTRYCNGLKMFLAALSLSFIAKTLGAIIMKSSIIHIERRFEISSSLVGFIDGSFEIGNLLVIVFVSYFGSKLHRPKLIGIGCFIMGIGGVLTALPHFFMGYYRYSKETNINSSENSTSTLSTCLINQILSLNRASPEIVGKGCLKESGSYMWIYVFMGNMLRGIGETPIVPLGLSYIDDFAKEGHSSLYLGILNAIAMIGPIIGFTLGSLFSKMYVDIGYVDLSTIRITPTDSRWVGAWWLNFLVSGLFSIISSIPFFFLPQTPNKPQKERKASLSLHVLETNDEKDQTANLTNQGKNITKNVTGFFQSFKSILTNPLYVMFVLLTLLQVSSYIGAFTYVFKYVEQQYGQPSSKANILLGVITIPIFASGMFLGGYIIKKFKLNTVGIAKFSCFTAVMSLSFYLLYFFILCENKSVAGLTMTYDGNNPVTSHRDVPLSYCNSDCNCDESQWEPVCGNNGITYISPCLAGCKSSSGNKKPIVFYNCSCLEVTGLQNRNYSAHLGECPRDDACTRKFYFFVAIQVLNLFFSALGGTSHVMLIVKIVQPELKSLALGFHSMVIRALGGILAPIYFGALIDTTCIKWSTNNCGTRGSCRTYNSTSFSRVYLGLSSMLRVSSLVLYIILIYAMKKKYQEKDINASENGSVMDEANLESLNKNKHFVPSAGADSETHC
From the text: The human multidrug resistance protein (MDR)1-transfected Madin–Darby Canine Kidney (MDCK) cells, human breast cancer resistance protein (BCRP)-transfected MDCK cells, human organic anion transporter (OAT)1-transfected MDCK cells, OAT3-transfected second portion of proximal tubule (S2) cells, human organic cation transporter (OCT)2-transfected S2 cells, human organic anion transporting polypeptide (OATP)1B1-transfected human embryonic kidney 293 (HEK293) cells and their MOCK cells were kindly provided by Japan Fuji Biomedical Co., Ltd. (Osaka, Japan). Cells were cultured in DMEM supplemented with 10% FBS, 100 units/mL penicillin and 100 […]. All cells were incubated in a humidified atmosphere of 95% air and 5% CO2 at 37 °C. A solution of 0.25% trypsin-EDTA was used to detach the cells from flasks. Cell culture flasks, 24-well cell culture plates, and transwell polycarbonate inserts (12 mm diameter, 0.4 μm pore size) were purchased from Corning Co-star Corp. (Bedford, MA).
Concentration-dependent inhibitions were conducted to study GA and PCA’s inhibitory effects on uptake transporters OAT1, OAT3, OCT2 and OATP1B1. The MDCK-OAT1, S2-OAT3, S2-OCT2 and HEK293-OATP1B1 cell lines were utilized in this study. […] The radioactive intensity was measured using a Tri-Carb 2910TR scintillator (PerkinElmer, Waltham, MA). […]

O=C(O)c1ccc(O)c(O)c1 [PCA, protocatechuic acid]
inhibitory effect on OAT3 (OAT3): no significant inhibitory effect
inhibitory effect on OATP1B1-mediated uptake of 3H-ES (OATP1B1): no statistical differences
